Experimental data reported in ChEMBL document CHEMBL1150985, “Macrolide-type motilin receptor agonists: Acid-stable 12-O-methyl-8,9-anhydroerythromycin A 6,9-hemiacetals” (Bioorg Med Chem Lett, 1995).
≈ marks a conversion by molar mass, not a printed value.

How the values were obtained:
[1] = target: T1, Motilin receptor (Homo sapiens, UniProt O43193); assay: Compound was tested for in vitro motilin receptor binding affinity
[2] = test system: Staphylococcus aureus; assay: Tested for the minimum inhibitory concentration by agar dilution method against Staphylococcus aureus 209P; format: functional
[3] = target: T1, Motilin receptor; assay: Compound was tested for in vitro motilin receptor binding affinity after treatment with hydrochloric acid solution (pH 2.5)
[4] = test system: Bacillus subtilis; assay: Compound was tested for the minimum inhibitory concentration by agar dilution method against Bacillus subtilis ATCC 6633; format: functional
[5] = test system: Streptococcus pneumoniae; assay: Tested for the minimum inhibitory concentration by agar dilution method against Streptococcus pneumoniae No. 12; format: functional
[6] = species: Oryctolagus cuniculus; assay: Compound was tested for the in vitro smooth muscle contractile activity; format: functional; conditions: Muscle tissue
[7] = test system: Escherichia coli; assay: Tested for the minimum inhibitory concentration by agar dilution method against Escherichia coli NIHJ JC-2; format: functional
[8] = test system: Klebsiella pneumoniae; assay: Tested for the minimum inhibitory concentration by agar dilution method against Klebsiella pneumoniae IFO 3512; format: functional
[9] = test system: Canis familiaris; assay: Motor index (MI) was reported in vivo for smooth muscle contractile activity after i.g. administration of the compound; format: functional, Canis lupus familiaris, Muscle tissue
[10] = test system: Canis familiaris; assay: Motor index (MI) was reported in vivo for smooth muscle contractile activity after i.v. administration of the compound; format: functional, Canis lupus familiaris, Muscle tissue

T1 sequence (O43193 whole entry): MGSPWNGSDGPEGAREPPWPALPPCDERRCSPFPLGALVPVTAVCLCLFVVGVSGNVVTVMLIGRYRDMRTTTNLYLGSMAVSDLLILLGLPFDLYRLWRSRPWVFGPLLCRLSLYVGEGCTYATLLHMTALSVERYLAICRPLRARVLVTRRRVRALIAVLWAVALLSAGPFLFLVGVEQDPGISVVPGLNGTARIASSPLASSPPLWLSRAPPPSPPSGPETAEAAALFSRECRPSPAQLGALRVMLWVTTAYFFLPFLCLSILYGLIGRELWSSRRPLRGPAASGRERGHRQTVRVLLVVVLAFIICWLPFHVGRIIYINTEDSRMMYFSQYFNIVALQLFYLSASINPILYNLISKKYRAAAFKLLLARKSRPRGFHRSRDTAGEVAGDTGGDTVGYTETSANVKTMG

Structure (SMILES)	IC50 [1] [µM]	MIC [2] [µM]	IC50 [3] [µM]	MIC [4] [µM]	MIC [5] [µM]	EC50 [6] [µM]	MIC [7] [µM]	MIC [8] [µM]	MI100 [9] [µg/kg]	MI100 [10] [µg/kg]
CCC1OC(=O)C(C)C(O[C@H]2C[C@@](C)(OC)[C@@H](O)C(C)O2)C(C)[C@@H](OC2OC(C)CC(N(C)C(C)C)[C@H]2O)[C@]2(C)CC(C)=C(O2)[C@H](C)[C@@H](O)[C@]1(C)OC (stereo not given in full)	0.00692	> 200	0.0151	> 200	200 (≈ 152 µg/mL)	0.0129	> 200	> 200	1.2	0.44
CC[C@H]1OC(=O)[C@H](C)[C@@H](O[C@H]2C[C@@](C)(OC)[C@@H](O)[C@H](C)O2)[C@H](C)[C@@H](OC2O[C@H](C)C[C@H](N(C)C)[C@H]2O)C(C)(O)C[C@@H](C)C(=O)[C@H](C)[C@@H](O)[C@]1(C)O (single isomer, unassigned) [ERYTHROMYCIN]	–	0.39 (≈ 0.286 µg/mL)	–	0.39 (≈ 0.286 µg/mL)	0.1 (≈ 0.0734 µg/mL)	0.316	100 (≈ 73.4 µg/mL)	6.3 (≈ 4.62 µg/mL)	–	32.3
CCC1OC(=O)C(C)C(O[C@H]2C[C@@](C)(OC)[C@@H](O)C(C)O2)C(C)[C@@H](OC2OC(C)CC(N(C)C)[C@H]2O)[C@]2(C)CC(C)C3(O[C@]1(C)[C@H](O)[C@H]3C)O2 (stereo not given in full)	0.155	–	0.17	–	–	> 10	–	–	–	>70

The next lines start with results.

IC50 [1] [µM]	MIC [2] [µM]	IC50 [3] [µM]	MIC [4] [µM]	MIC [5] [µM]	EC50 [6] [µM]	MIC [7] [µM]	MIC [8] [µM]	Structure (SMILES)	MI100 [9] [µg/kg]	MI100 [10] [µg/kg]
0.00759	25 (≈ 18.2 µg/mL)	0.0398	6.3 (≈ 4.6 µg/mL)	1.6 (≈ 1.17 µg/mL)	0.0195	> 200	200 (≈ 146 µg/mL)	CCC1OC(=O)C(C)C(O[C@H]2C[C@@](C)(OC)[C@@H](O)C(C)O2)C(C)[C@@H](OC2OC(C)CC(N(C)C)[C@H]2O)[C@]2(C)CC(C)=C(O2)[C@H](C)[C@@H](O)[C@]1(C)OC (stereo not given in full)	–	–
0.00339	–	0.224	–	–	–	–	–	CC[C@H]1OC(=O)[C@H](C)[C@@H](O[C@H]2C[C@@](C)(OC)[C@@H](O)[C@H](C)O2)[C@H](C)[C@@H](OC2O[C@H](C)C[C@H](N(C)C)[C@H]2O)C2(C)CC(C)=C(O2)[C@H](C)[C@@H](O)[C@]1(C)O (single isomer, unassigned)	–	1
0.00468	> 200	0.00832	> 200	50 (≈ 37.2 µg/mL)	0.0229	> 200	> 200	CCC1OC(=O)C(C)C(O[C@H]2C[C@@](C)(OC)[C@@H](O)C(C)O2)C(C)[C@@H](OC2OC(C)CC(N(C)CC)[C@H]2O)[C@]2(C)CC(C)=C(O2)[C@H](C)[C@@H](O)[C@]1(C)OC (stereo not given in full)	–	–
